MIC data for 2 compounds are collected here from ChEMBL document CHEMBL1149030, “Discobahamins A and B, new peptides from the Bahamian deep water marine sponge Discodermia sp” (1994).

The subject of test [1] is Candida albicans. The experiment in a line: Antifungal activity against mycelial form of Candida albicans. The test is classed as functional.
For test [2], the system named is Candida albicans. Nature of the test: Antifungal activity against yeast form of Candida albicans. It is filed as functional.

Converted amounts (≈) assume the structure as drawn.

As usually defined, the MIC is the lowest concentration that inhibits growth of the organism. A higher MIC goes with a need for much substance. With `CCC[C@@H](NC(=O)C(O)C(C)CC)C(=O)N[C@H]1CCCNC(=O)[C@H](Cc2c[nH]c3ccc(O)cc23)NC(=O)/C=C/c2coc(n2)[C@H](C)NC(=O)C(=O)[C@H](CC(C)C)NC(=O)[C@@H]2CCCN2C1=O` (some centres undefined) [DISCOBAHAMIN A], the figures for the minimal inhibitory concentration (MIC) in the test with Candida albicans [1] and against Candida albicans [2] were 50 µg/mL (≈ 53.6 µM) and 25 µg/mL (≈ 26.8 µM), respectively.

Consider `CCC(C)C(O)C(=O)N[C@H](CC(C)C)C(=O)N[C@H]1CCCNC(=O)[C@H](Cc2c[nH]c3ccc(O)cc23)NC(=O)/C=C/c2coc(n2)[C@H](C)NC(=O)C(=O)[C@H](CC(C)C)NC(=O)[C@@H]2CCCN2C1=O` (some centres undefined) [DISCOBAHAMIN B], for which the figures for the minimum inhibitory concentration (MIC) against Candida albicans [1] and in the test with Candida albicans [2] were 50 µg/mL (≈ 52.8 µM) and 25 µg/mL (≈ 26.4 µM), respectively.
